In article PMC7922932, “Molecular Dissection of Escherichia coli CpdB: Roles of the N Domain in Catalysis and Phosphate Inhibition, and of the C Domain in Substrate Specificity and Adenosine Inhibition” (International Journal of Molecular Sciences, 2021):
Where “and” joins values, the source holds several entries; their conditions need not be identical. Identical values can stand only once. Like-named read-outs stand apart in the source and are kept apart here.

Experiments:
[1] = target: T1, CpdB_Ndom (N-terminal domain of CpdB) (Escherichia coli, UniProt P08331, D305N/I97V/M87I); type: biochemical; details: for K M / k cat / k cat /K M: CpdB_Ndom, substance is the substrate, mean ± SD of three experiments; for Activity of CpdB_Ndom on substrate (hydrolytic rate): fixed 750 µM substrate concentration
T1 construct: GST (N, cleaved yes); made in house; host or cells: E. coli BL21
Method: With all the detectably hydrolyzed substrates, saturation kinetics was studied and parameters kcat and KM were determined from Michaelis-Menten plots (Table 1).
The same assay was used with 2′,3′- or 3′,5′-cyclic nucleotides, CDP-choline and bis-4-NPP except that an excess of alkaline phosphatase was included in the reaction mixture as auxiliary enzyme.
Datasets obtained with different substrates in the absence of inhibitors were used to derive kcat and KM values by adjusting the Michaelis-Menten equation to the experimental points by non-linear regression.

[2] = target: T2, Tyr^544Ala-CpdB (Escherichia coli, UniProt P08331, D305N/I514V/I97V/M87I/N471D/S472N/Y544A); type: biochemical; details: Tyr^544Ala-CpdB; substance is the substrate
T2 construct: A structural model of mature CpdB (aa 20–647) was built; GST (N, cleaved yes); made in house; host or cells: E. coli BL21
Excerpt: (§1) The role of the possible catalytic and substrate-binding sites was additionally tested by the preparation of two point mutants of the mature CpdB protein. On the one hand, the mutation His^117Ala modified the histidine residue conserved in the N domain (Figure 1b) with respect to UshA, where it has been proposed to be part of the catalytic core structure and to act as a general base that facilitates the nucleophilic attack by deprotonating a water molecule, and to participate in the stabilization of the transition state. […] On the other hand, mutation Tyr^544Ala modified one of the aromatic residues of CpdB which are conserved in the C domain with respect to the UshA phenylalanine residues that form a stacked sandwich with the adenine ring of the substrate.

[3] = system: Tyr^544Ala-CpdB; type: biochemical, Escherichia coli; details: Tyr^544Ala-CpdB versus wild-type mature CpdB
Excerpt: as §1

[4] = target: T3, His^117Ala-CpdB (Escherichia coli, UniProt P08331, D305N/H117A/I514V/I97V/M87I/N471D/S472N); type: biochemical; details: for Catalytic efficiency (kcat/KM) lower than wild-type mature CpdB: His^117Ala-CpdB versus wild-type mature CpdB, same substrate; for K M / k cat / k cat /K M: His^117Ala-CpdB, substance is the substrate
T3 construct: A structural model of mature CpdB (aa 20–647) was built; GST (N, cleaved yes); made in house; host or cells: E. coli BL21
Excerpt: as §1

[5] = target: T4, CpdB_Ndom (Escherichia coli, UniProt P08331, D305N/I97V/M87I); experiment: biochemical; details: CpdB_Ndom; substrate bis-4-NPP; global fit, complete competitive inhibition (Figure 7); read-out: Inhibition constant (Ki)
T4 construct: GST (N, cleaved yes); made in house; host or cells: E. coli BL21
Method: Substrate saturation experiments were run in the absence and the presence of one of these inhibitors at fixed concentrations (Figure 7).
(§2) Reaction mixtures of 100 µL contained, besides the needed amount of enzyme (i.e., 0.02–0.05 µg/mL of mature CpdB, 2 µg/mL of a CpdB point mutant, or 0.2 µg/mL of CpdB_Ndom), 50 mM Tris [Tris(hydroxymethyl)aminomethane]-HCl pH 7.5 (adjusted at 37 °C), 2 mM MnCl2, 0.1 mg/mL bovine serum albumin, and the indicated concentrations of bis-4-NPP and the compound tested as inhibitor. Incubations performed at 37 °C were stopped by addition of 0.5 mL of 200 mM Tris, pH 8.9, 5 mM EDTA (ethylenediaminetetraacetate), immediately followed by A405 measurement (ε = 18.1 mM^−1 cm^−1). This termination procedure was used instead of the addition of a high NaOH concentration, to avoid the known formation of brown precipitates of air-oxidized Mn^2+ hydroxide. On occasions, when a higher sensitivity was needed, reaction mixtures of 500 µL were implemented and termination was performed with 0.1 mL 1M Tris, pH 8.9, 30 mM EDTA.

[6] = target: T5, Mature CpdB (Escherichia coli, UniProt P08331); experiment: biochemical; type: biochemical; parameters: A structural model of mature CpdB (aa 20–647) was built; GST (N, cleaved yes); made in house; host or cells: E. coli BL21; details: mature CpdB; for IC50: 750 µM bis-4-NPP as the substrate, single illustrative experiments, read-out: IC50; for Ki: substrate bis-4-NPP, global fit, mixed partial inhibition (Figure 5), values without SD are single experiments, read-out: Inhibition constant (Ki)
Method: as §2

[7] = target: T4, CpdB_Ndom; experiment: Products of the hydrolysis of cyclic (di)nucleotides by CpdB_Ndom (HPLC); type: biochemical; details: 2′,3′-cAMP at 500 µM
Excerpt: (§3) The procedures and detailed conditions to measure the initial rates of phosphohydrolytic reactions were as earlier described [4]. […] The same assay was used with 2′,3′- or 3′,5′-cyclic nucleotides, CDP-choline and bis-4-NPP except that an excess of alkaline phosphatase was included in the reaction mixture as auxiliary enzyme.

[8] = target: T4, CpdB_Ndom; type: biochemical; details: CpdB_Ndom; for IC50: 750 µM bis-4-NPP as the substrate, single illustrative experiments; for Ki: substrate bis-4-NPP, estimated from inhibitor dose-response curves (Figure 6), read-out: Inhibition constant (Ki)
[9] = target: T5, Mature CpdB; parameters: A structural model of mature CpdB (aa 20–647) was built; GST (N, cleaved yes); made in house; host or cells: E. coli BL21; details: substance is the substrate; cited from earlier work
[10] = target: T5, Mature CpdB; details: for Ki: read-out: Inhibition constant (Ki), mature CpdB, substrate 3′-AMP, global fit, mixed partial inhibition (Figure 5)
Excerpt: In this approach, inhibitors were used as probes for the relevance of those enzyme sites, irrespective of the physiological character and concentrations of the compounds used.
as §3
The procedures followed to derive kinetic parameters kcat, KM and Ki from initial rate vs. substrate concentration datasets, either in the presence or the absence of inhibitor, were as described elsewhere [49]. Datasets obtained with different substrates in the absence of inhibitors were used to derive kcat and KM values by adjusting the Michaelis-Menten equation to the experimental points by non-linear regression. […] Each one of these equations was simultaneously adjusted (global fit) by nonlinear regression to the three saturation curves of each inhibition experiment, using the Solver function of Microsoft Excel. During the adjustments, Vmax, KM and Ki were left to fluctuate. […] In each set of experiments, the type of inhibition that gave the best fit was used as the model to estimate Ki values.

T3 sequence (P08331 20-647 M87I/I97V/H117A/D305N/N471D/S472N/I514V): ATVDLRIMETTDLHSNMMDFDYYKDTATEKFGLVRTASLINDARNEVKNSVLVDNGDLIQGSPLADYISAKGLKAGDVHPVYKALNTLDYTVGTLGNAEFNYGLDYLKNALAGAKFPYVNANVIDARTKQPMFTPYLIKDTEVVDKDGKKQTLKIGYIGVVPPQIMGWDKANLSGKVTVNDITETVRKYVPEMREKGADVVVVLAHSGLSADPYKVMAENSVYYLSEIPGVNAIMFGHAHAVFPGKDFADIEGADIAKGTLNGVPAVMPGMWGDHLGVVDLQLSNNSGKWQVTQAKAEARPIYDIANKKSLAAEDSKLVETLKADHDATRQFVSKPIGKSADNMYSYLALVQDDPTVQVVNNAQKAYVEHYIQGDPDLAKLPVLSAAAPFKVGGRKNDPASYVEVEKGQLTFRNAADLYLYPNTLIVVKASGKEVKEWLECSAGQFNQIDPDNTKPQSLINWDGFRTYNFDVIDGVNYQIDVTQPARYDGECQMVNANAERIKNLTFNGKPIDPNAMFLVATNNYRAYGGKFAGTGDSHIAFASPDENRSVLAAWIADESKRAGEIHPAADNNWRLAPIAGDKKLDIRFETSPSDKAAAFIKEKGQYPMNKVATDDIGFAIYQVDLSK
T2 sequence (P08331 20-647 M87I/I97V/D305N/N471D/S472N/I514V/Y544A): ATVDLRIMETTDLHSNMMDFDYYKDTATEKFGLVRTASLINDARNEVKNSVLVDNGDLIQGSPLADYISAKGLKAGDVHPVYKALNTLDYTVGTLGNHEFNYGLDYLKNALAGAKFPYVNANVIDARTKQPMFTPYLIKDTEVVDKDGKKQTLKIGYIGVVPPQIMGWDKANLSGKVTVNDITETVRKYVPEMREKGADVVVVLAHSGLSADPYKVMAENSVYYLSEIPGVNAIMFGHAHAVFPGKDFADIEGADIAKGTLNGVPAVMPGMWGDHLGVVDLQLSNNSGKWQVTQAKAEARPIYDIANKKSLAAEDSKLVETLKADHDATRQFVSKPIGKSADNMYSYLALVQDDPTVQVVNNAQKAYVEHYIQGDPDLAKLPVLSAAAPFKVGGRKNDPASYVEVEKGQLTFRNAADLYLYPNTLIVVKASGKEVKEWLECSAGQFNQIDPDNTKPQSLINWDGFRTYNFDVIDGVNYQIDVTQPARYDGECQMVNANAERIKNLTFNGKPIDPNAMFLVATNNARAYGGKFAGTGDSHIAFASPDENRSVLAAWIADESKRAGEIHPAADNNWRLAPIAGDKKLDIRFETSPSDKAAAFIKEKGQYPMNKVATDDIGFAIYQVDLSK
T1 sequence (P08331 20-354 M87I/I97V/D305N): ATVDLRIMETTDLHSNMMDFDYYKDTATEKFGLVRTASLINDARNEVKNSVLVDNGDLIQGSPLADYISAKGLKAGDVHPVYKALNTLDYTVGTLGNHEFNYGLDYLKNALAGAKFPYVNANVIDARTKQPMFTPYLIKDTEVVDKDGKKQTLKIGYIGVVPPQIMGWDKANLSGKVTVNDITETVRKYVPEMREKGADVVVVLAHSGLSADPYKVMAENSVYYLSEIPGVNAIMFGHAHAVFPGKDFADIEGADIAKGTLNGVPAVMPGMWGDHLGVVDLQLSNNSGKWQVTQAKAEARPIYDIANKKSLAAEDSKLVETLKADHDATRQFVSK
T4 sequence (P08331 20-354 M87I/I97V/D305N): as above
T5 sequence (P08331 20-647): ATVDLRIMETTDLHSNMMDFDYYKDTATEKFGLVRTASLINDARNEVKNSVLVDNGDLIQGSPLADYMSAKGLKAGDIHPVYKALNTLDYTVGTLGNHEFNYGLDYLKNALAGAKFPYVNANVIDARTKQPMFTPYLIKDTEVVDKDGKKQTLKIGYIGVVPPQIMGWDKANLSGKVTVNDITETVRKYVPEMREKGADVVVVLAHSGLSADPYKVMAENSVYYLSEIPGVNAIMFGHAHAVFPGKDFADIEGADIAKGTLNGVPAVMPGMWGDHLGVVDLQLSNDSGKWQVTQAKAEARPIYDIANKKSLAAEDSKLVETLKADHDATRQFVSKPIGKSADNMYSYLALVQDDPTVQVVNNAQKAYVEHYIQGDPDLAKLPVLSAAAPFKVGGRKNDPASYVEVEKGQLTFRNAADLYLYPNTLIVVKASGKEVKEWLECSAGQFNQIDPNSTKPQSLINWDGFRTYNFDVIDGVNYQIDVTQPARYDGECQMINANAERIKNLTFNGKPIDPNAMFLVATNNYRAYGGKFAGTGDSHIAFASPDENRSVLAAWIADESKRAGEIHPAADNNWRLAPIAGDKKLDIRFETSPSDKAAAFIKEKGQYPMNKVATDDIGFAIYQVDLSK

Structure (SMILES)	K M [1] [µM]	k cat [1] [s⁻¹]	k cat /K M [1]	IC50 [6] [µM]	Ki [6] [µM]	IC50 [8] [µM]	K M [9] [µM]	k cat [9] [s⁻¹]	k cat /K M (catalytic efficiency) [9]	further results
Nc1ncnc2c1ncn2[C@@H]1O[C@H](CO)[C@H]2OP(=O)(O)O[C@H]21 [2′,3′-cAMP]	390 ± 170	73 ± 32	190,000 ± 13,000 M^−1 s^−1	56	5 ± 0.4	840	27	190	7,300,000 M^−1 s^−1	K M [2]: 1600 ± 550 µM; k cat [2]: 190 ± 60 s⁻¹; k cat /K M [2]: 140,000 ± 73,000 M^−1 s^−1; KM increase by the Tyr^544Ala mutation [3]: 60 fold; Catalytic efficiency (kcat/KM) lower than wild-type mature CpdB [4]: 5000 fold; K M [4]: 126 ± 7 µM; k cat [4]: 0.18 ± 0.02 s⁻¹; k cat /K M [4]: 1500 ± 230 M⁻¹ s⁻¹; Ki [5]: 460 ± 50 µM; 2′-AMP as product of hydrolysis [7]: 15%; 3′-AMP as product of hydrolysis [7]: 85%
Nc1ccn([C@@H]2O[C@H](CO)[C@H]3OP(=O)(O)O[C@H]32)c(=O)n1 [2′,3′-cCMP]	180 ± 50	33 ± 5	200,000 ± 80,000 M^−1 s^−1				12	100	8,500,000 M^−1 s^−1	
Nc1nc2c(ncn2[C@@H]2O[C@H](CO)[C@H]3OP(=O)(O)O[C@H]32)c(=O)[nH]1 [2′,3′-cGMP]	570 ± 160	58 ± 16	100,000 ± 13,000 M^−1 s^−1				25	84	3,500,000 M^−1 s^−1	
O=c1ccn([C@@H]2O[C@H](CO)[C@H]3OP(=O)(O)O[C@H]32)c(=O)[nH]1 [2′,3′-cUMP]	630 ± 170	155 ± 32	250,000 ± 50,000 M^−1 s^−1				62	260	4,200,000 M^−1 s^−1	
Nc1ncnc2c1ncn2[C@@H]1O[C@H](CO)[C@@H](O)[C@H]1OP(=O)(O)O [2′-AMP]				100	8.8 ± 2	920				IC50 [10]: 320 µM; Ki [10]: 7.1 ± 3.2 µM; Activity of CpdB_Ndom on substrate (hydrolytic rate) [1]: absence of detectable activity; Ki [8]: 600 µM
Nc1ncnc2c1ncn2[C@@H]1O[C@@H]2COP(=O)(O)O[C@H]2[C@H]1O [3′,5′-cAMP]	6900 ± 2600						4600			
Nc1ncnc2c1ncn2[C@@H]1O[C@H](CO)[C@@H](OP(=O)(O)O)[C@H]1O [3′-AMP]	880 ± 250	0.004 ± 0.0002	5 M⁻¹ s⁻¹ and 5.2 ± 1.0 M⁻¹ s⁻¹	54	3.6 ± 0.2	4100	14	176		Stronger loss of catalytic efficiency than on 2′,3′-cAMP caused by the deletion of the C domain ([1]; CpdB_Ndom versus mature CpdB): 10^5 fold; Activity of CpdB_Ndom on substrate (hydrolytic rate) [1]: almost complete loss of activities; K M [2]: 850 ± 110 µM; k cat [2]: 160 ± 37 s⁻¹; KM increase by the Tyr^544Ala mutation [3]: 60 fold; Activity of His^117Ala-CpdB on substrate [4]: essentially inactive; Ki [5]: 3300 ± 550 µM
Nc1ncnc2c1ncn2[C@@H]1O[C@H](COP(=O)(O)O)[C@@H](O)[C@H]1O [5′-AMP]				110	14	560				IC50 [10]: 900 µM; Ki [10]: 20 ± 8 µM; Activity of CpdB_Ndom on substrate (hydrolytic rate) [1]: absence of detectable activity; Ki [5]: 370 ± 50 µM
Nc1ncnc2c1ncn2[C@@H]1O[C@H](COP(=O)(O)OP(=O)(O)O)[C@@H](O)[C@H]1O [ADP]				1100	60					
Nc1ncnc2c1ncn2[C@@H]1O[C@H](COP(=O)(O)OP(=O)(O)OP(=O)(O)O)[C@@H](O)[C@H]1O [ATP]				720	113 ± 19	8700				Ki [8]: 5700 µM
C[N+](C)(C)CCOP(=O)(O)OP(=O)([O-])OC[C@H]1O[C@@H](n2ccc(N)nc2=O)[C@H](O)[C@@H]1O [CDP-choline]	2900 ± 1700	5.7 ± 3.5	1950 ± 130 M⁻¹ s⁻¹				219	0.51	2300 M⁻¹ s⁻¹	
O=[N+]([O-])c1ccc(OP(=O)(O)Oc2ccc([N+](=O)[O-])cc2)cc1 [bis-4-NPP, bis-4-nitrophenylphosphate]	1300 ± 80	164 ± 14	130,000 ± 7000 M^−1 s^−1				96	340	3.6 × 10^6 M^−1 s^−1 and 3,600,000 M^−1 s^−1	K M [2]: 430 ± 30 µM; k cat [2]: 130 ± 34 s⁻¹; k cat /K M [2]: 300,000 ± 100,000 M^−1 s^−1; KM increase by the Tyr^544Ala mutation [3]: five-fold; Catalytic efficiency (kcat/KM) lower than wild-type mature CpdB [4]: 60 fold; K M [4]: 440 ± 90 µM; k cat [4]: 26 ± 3 s⁻¹; k cat /K M [4]: 60,000 ± 7000 M^−1 s^−1
Nc1ncnc2c1ncn2[C@@H]1O[C@@H]2COP(=O)(O)O[C@H]3[C@@H](O)[C@H](n4cnc5c(N)ncnc54)O[C@@H]3COP(=O)(O)O[C@H]2[C@H]1O [c-di-AMP, 3′,5′-cyclic diadenosine monophosphate]	3400 ± 2200	0.012 ± 0.007	3.5 ± 0.1 M⁻¹ s⁻¹				15	0.40	29,000 M^−1 s^−1	
Nc1nc2c(ncn2[C@@H]2O[C@@H]3COP(=O)(O)O[C@H]4[C@@H](O)[C@H](n5cnc6c(=O)[nH]c(N)nc65)O[C@@H]4COP(=O)(O)O[C@H]3[C@H]2O)c(=O)[nH]1 [c-di-GMP, 3′,5′-cyclic diguanosine monophosphate]	250 ± 30	0.0003 ± 0.0001	1.2 ± 0.4 M⁻¹ s⁻¹				6	0.07	13,000 M^−1 s^−1	
Nc1ncnc2c1ncn2[C@@H]1O[C@H](COP(=O)(O)O[C@H]2[C@@H](O)[C@H](n3cnc4c(N)ncnc43)O[C@@H]2COP(=O)(O)O)[C@@H](O)[C@H]1O [pApA, 5′-phosphoadenylyl-3′→5′-adenosine]	230 ± 40	0.0004 ± 0.0001	1.8 ± 0.2 M⁻¹ s⁻¹				0.6	1.30	2,300,000 M^−1 s^−1	Stronger loss of catalytic efficiency than on c-di-AMP caused by the deletion of the C domain ([1]; CpdB_Ndom versus mature CpdB): 100 fold
